The values that follow come from patent US11999727B2 (Tango Therapeutics, Inc., priority 2020, dated 2024).

pIC50: −log10 of the molar value. Some results are limits rather than exact numbers.

For experiment [1], the target named is T1, PRMT5 (Homo sapiens, UniProt O14744).
T1 construct: purchased Viva (custom protein)
Nature of the experiment: PRMT5 biochemical IC50 assay with SAM as cofactor. The following applies: PRMT5, SAM as cofactor; read-out: SAM IC50.

In experiment [2] the target is T1, PRMT5. Nature of the experiment: PRMT5 biochemical IC50 assay with no cofactor. The note with it: PRMT5, no cofactor; read-out: No Cofactor/rel IC50. From the text: Table 1 indicates IC50 values (μM) against PRMT5 for exemplary compounds in the presence of SAM as cofactor, with no cofactor, and with MTA as cofactor, respectively (columns 4-6). […] Ki values can be calculated from the IC50 values as described in the Examples section. As detailed in the Examples section, for the assay performed in the presence of SAM, IC50=Ki×1.5 (Ki=IC50/1.5).

In experiment [3] the target is T1, PRMT5. In words: PRMT5 biochemical IC50 assay with MTA as cofactor. The note with it: PRMT5, MTA as cofactor; read-out: MTA IC50.
Experiment [4] has as its system HAP1 MTAP-intact cell line. In words: SDMA in-cell western assay, HAP1 MTAP-intact. The following applies: Homo sapiens, HAP1, SDMA in-cell western, HAP1 MTAP-intact; read-out: MTAP HAP1 intact IC50. The class given is cell-based. The method in brief:
(§1)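 IC50 values come from SDMA signal quantified by in-cell western in two HAP1 lines, one with native MTAP levels and one lacking MTAP.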

In experiment [5] the test system is HAP1 MTAP-deleted cell line. Nature of the experiment: SDMA in-cell western assay, HAP1 MTAP-deleted. The class given is cell-based. The following applies: for pIC50: Homo sapiens, HAP1, SDMA in-cell western, HAP1 MTAP-deleted; for MTAP intact/deleted ratio: SDMA in-cell western. The method in brief:
as §1

Experiment [6] relates to HAP1 MTAP-deleted cell line. Nature of the experiment: Viability assay, MTAP-deleted cell line. The following applies: Homo sapiens, HAP1, viability assay, read-out: HAP1 MTAP deleted viability. It is filed as cell-based. From the text:
Table 1 additionally indicates IC50 values in a viability assay for the MTAP-deleted cell line (column 10), indicating the effect of treatment with compound on cell survival.

Setting [7] is: read-out: HAP1 MTAP deleted IC50.
The mark [8] stands for this setting: IC50 ratio HAP1 MTAP-intact / HAP1 MTAP-deleted.
The mark [9] stands for this setting: read-out: HAP 1 MTAP deleted IC50.

T1 sequence (O14744 whole entry): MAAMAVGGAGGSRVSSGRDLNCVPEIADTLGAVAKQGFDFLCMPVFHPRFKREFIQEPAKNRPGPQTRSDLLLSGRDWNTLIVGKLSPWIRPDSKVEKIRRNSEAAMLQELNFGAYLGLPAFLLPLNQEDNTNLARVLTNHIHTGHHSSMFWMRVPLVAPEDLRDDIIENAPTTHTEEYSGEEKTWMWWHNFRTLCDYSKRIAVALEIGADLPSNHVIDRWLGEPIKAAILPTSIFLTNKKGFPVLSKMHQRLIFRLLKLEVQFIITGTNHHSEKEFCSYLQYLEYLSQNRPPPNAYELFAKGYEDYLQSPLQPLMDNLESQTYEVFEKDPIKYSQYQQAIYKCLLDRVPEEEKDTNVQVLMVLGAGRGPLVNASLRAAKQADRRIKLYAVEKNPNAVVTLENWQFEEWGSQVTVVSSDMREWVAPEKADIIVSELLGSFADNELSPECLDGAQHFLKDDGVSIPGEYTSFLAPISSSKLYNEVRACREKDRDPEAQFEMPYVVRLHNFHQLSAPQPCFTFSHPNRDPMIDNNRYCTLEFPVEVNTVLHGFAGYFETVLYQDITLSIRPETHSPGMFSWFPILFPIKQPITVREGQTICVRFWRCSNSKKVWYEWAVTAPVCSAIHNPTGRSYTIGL
T1 sequence (Q9BQA1 whole entry partner): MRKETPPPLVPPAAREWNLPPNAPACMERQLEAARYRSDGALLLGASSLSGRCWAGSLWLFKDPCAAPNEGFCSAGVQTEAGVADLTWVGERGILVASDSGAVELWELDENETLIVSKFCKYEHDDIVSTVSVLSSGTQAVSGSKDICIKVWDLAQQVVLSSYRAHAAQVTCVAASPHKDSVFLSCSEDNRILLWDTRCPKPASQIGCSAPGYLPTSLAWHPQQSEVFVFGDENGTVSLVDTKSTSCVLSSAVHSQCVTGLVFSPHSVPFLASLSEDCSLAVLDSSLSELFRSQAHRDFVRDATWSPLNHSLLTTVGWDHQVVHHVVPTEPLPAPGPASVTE

As for `Cc1cc(NC(=O)C(=O)N2CC(C)CCC2C2CNC(=O)C2)cnc1N` (stereo not drawn) [Compound 210, N-(6-amino-5-methylpyridin-3-yl)-2-(5-methyl-2-(5-oxopyrrolidin-3-yl)piperidin-1-yl)-2-oxoacetamide], the pIC50 in experiment [1] was under 6.30; in experiment [2] it was 6.30 to 7.30; in experiment [3], 6.30 to 7.30; in experiment [4] it was under 6.00; in experiment [5] (setting [7]), under 6.00; in experiment [6] (MTAP-deleted cell line) it was under 5.00. Moreover, the MTAP intact/deleted ratio result in experiment [5] (setting [8]) is recorded as “B (an IC50 ratio greater than or equal to 3 fold but lower than 10 fold)”.

For the molecule `Cc1cc(NC(=O)C(=O)N2CCCCC2C23CC(C(F)(F)F)(C2)C3)cnc1N` (stereo not drawn) [Compound 217, N-(6-amino-5-methyl-3-pyridyl)-2-oxo-2-[2-[3-(trifluoromethyl)-1-bicyclo[1.1.1]pentanyl]-1-piperidyl]acetamide], the pIC50 in experiment [1] is 6.30 to 7.30; in experiment [2], under 6.30; in experiment [3], 6.30 to 7.30; in experiment [4], under 6.00; in experiment [5] (setting [7]), under 6.00; in experiment [6] (MTAP-deleted cell line), under 5.00. Moreover, the MTAP intact/deleted ratio result in experiment [5] (setting [8]) was “B (an IC50 ratio greater than or equal to 3 fold but lower than 10 fold)”.

For `CCC(C)C1CCCCN1C(=O)C(=O)Nc1cnc(N)c(C)c1` (stereo not drawn) [Compound 232, N-(6-amino-5-methyl-3-pyridyl)-2-oxo-2-(2-sec-butyl-1-piperidyl)acetamide], the pIC50 in experiment [1] was under 6.30; in experiment [2] it was under 6.30; in experiment [3], 6.30 to 7.30; in experiment [4], under 6.00; in experiment [5] (setting [7]), under 6.00; in experiment [6] (MTAP-deleted cell line) it was under 5.00. Also, the MTAP intact/deleted ratio entry in experiment [5] (setting [8]) was “B (an IC50 ratio greater than or equal to 3 fold but lower than 10 fold)”.

Take `NC(=O)c1cncc(NC(=O)C(=O)N2CCCCC2C2CCCC2)c1` (stereo not drawn) [Compound 240, 5-(2-(2-cyclopentylpiperidin-1-yl)-2-oxoacetamido)nicotinamide]: the pIC50 was 6.30 to 7.30 in experiment [1]; 6.30 to 7.30 in experiment [2]; over 7.30 in experiment [3]; under 6.00 in experiment [4]; 6.00 to 7.00 in experiment [5] (setting [7]); under 5.00 in experiment [6] (MTAP-deleted cell line). Moreover, the MTAP intact/deleted ratio entry in experiment [5] (setting [8]) is “A (an IC50 ratio greater than or equal to 10 fold)”.

For `C[C@@H]1CC[C@@H](c2ccc(F)cc2)N(C(=O)C(=O)Nc2cncc(C(N)=O)c2)C1` [Compound 302, 5-[[2-[(2S,5R)-2-(4-fluorophenyl)-5-methyl-1-piperidyl]-2-oxo-acetyl]amino]pyridine-3-carboxamide], the pIC50 in experiment [1] was under 6.30; in experiment [2], under 6.30; in experiment [3], under 6.30; in experiment [4], under 6.00; in experiment [5] (setting [7]), under 6.00; in experiment [6] (MTAP-deleted cell line), under 5.00. The MTAP intact/deleted ratio entry in experiment [5] (setting [8]) is given as “C (an IC50 ratio of less than 3 fold)”.

As to `CNc1ccc([C@H]2CC[C@H](C)CN2C(=O)C(=O)Nc2cncc(C(N)=O)c2)cc1` [Compound 438, 5-[[2-[(2R,5S)-5-methyl-2-[4-(methylamino)phenyl]-1-piperidyl]-2-oxo-acetyl]amino]pyridine-3-carboxamide], the pIC50 in experiment [1] is over 7.30; in experiment [2] it was over 7.30; in experiment [3] it was over 7.30; in experiment [4], under 6.00; in experiment [5] (setting [7]), over 7.00; in experiment [6] (MTAP-deleted cell line), over 6.00. The MTAP intact/deleted ratio result in experiment [5] (setting [8]) was “A (an IC50 ratio greater than or equal to 10 fold)”.

In the case of `Cc1cc(NC(=O)C(=O)N2CC3(CCC2c2ccc(F)cc2)CC3)cnc1N` (stereo not drawn) [Compound 753], the pIC50 in experiment [1] is 6.30 to 7.30; in experiment [2] it was 6.30 to 7.30; in experiment [3], over 7.30; in experiment [4] it was under 6.00; in experiment [5] (setting [7]), 6.00 to 7.00; in experiment [6] (HAP1 MTAP-deleted) it was 5.00 to 6.00. Besides, in experiment [5] (setting [8]), the MTAP intact/deleted ratio entry was “A (an IC50 ratio greater than or equal to 10 fold)”.

As to `NC(=O)c1cncc(NC(=O)C(=O)N2CC3(CCC2c2ccc(F)cc2)CC3)c1` (stereo not drawn) [Compound 776, 5-(2-(6-(4-fluorophenyl)-5-azaspiro[2.5]octan-5-yl)-2-oxoacetamido)nicotinamide], the pIC50 in experiment [1] is 6.30 to 7.30; in experiment [2], 6.30 to 7.30; in experiment [3], 6.30 to 7.30; in experiment [4] it was under 6.00; in experiment [5] (setting [7]) it was 6.00 to 7.00; in experiment [6] (HAP1 MTAP-deleted), 5.00 to 6.00. Further, the MTAP intact/deleted ratio entry in experiment [5] (setting [8]) is “A (an IC50 ratio greater than or equal to 10 fold)”.

For the molecule `CCc1cc(NC(=O)C(=O)N2C[C@@H](C)CC[C@@H]2c2ccc(F)cc2)cnc1C` [Compound 779, N-(5-ethyl-6-methyl-3-pyridyl)-2-[(2R,5S)-2-(4-fluorophenyl)-5-methyl-1-piperidyl]-2-oxo-acetamide], the pIC50 was 6.30 to 7.30 in experiment [1]; 6.30 to 7.30 in experiment [2]; over 7.30 in experiment [3]; under 6.00 in experiment [4]; 6.00 to 7.00 in experiment [5] (setting [7]); 5.00 to 6.00 in experiment [6] (HAP1 MTAP-deleted). Also, the MTAP intact/deleted ratio entry in experiment [5] (setting [8]) was “A (an IC50 ratio greater than or equal to 10 fold)”.

On to `COc1cc(NC(=O)C(=O)N2C[C@@H](C)CC[C@@H]2c2ccc(F)cc2)cnc1N` [Compound 979, N-(6-amino-5-methoxy-3-pyridyl)-2-[(2R,5S)-2-(4-fluorophenyl)-5-methyl-1-piperidyl]-2-oxo-acetamide], for which the pIC50 in experiment [1] was 6.30 to 7.30; in experiment [2], 6.30 to 7.30; in experiment [3], over 7.30; in experiment [4] it was under 6.00; in experiment [5] (setting [9]), 6.00 to 7.00; in experiment [6] (MTAP-deleted cell line), 5.00 to 6.00. Further, the MTAP intact/deleted ratio entry in experiment [5] (setting [8]) is on record as “A (an IC50 ratio greater than or equal to 10 fold)”.

Take `C[C@H]1CC[C@H](c2ccc(F)cc2)N(C(=O)C(=O)Nc2cnc(N)c(C3CC3)c2)C1` [Compound 989, N-(6-amino-5-cyclopropyl-3-pyridyl)-2-[(2R,5S)-2-(4-fluorophenyl)-5-methyl-1-piperidyl]-2-oxo-acetamide]: the pIC50 in experiment [1] is 6.30 to 7.30; in experiment [2], 6.30 to 7.30; in experiment [3] it was over 7.30; in experiment [4], under 6.00; in experiment [5] (setting [9]), over 7.00; in experiment [6] (MTAP-deleted cell line), over 6.00. For the same molecule, the MTAP intact/deleted ratio result in experiment [5] (setting [8]) was “A (an IC50 ratio greater than or equal to 10 fold)”.

Turning to `CC(C)c1cc(NC(=O)C(=O)N2C[C@@H](C)CC[C@@H]2c2ccc(F)cc2)cnc1N` [Compound 993, N-(6-amino-5-isopropyl-3-pyridyl)-2-[(2R,5S)-2-(4-fluorophenyl)-5-methyl-1-piperidyl]-2-oxo-acetamide], the pIC50 in experiment [1] was 6.30 to 7.30; in experiment [2], over 7.30; in experiment [3], over 7.30; in experiment [4], under 6.00; in experiment [5] (setting [9]), 6.00 to 7.00; in experiment [6] (MTAP-deleted cell line) it was 5.00 to 6.00. Also, the MTAP intact/deleted ratio result in experiment [5] (setting [8]) is listed as “A (an IC50 ratio greater than or equal to 10 fold)”.

Regarding `C[C@H]1CC[C@H](c2ccc(F)cc2)N(C(=O)C(=O)Nc2cnc(N)c(OC(F)F)c2)C1` [Compound 1026, N-[6-amino-5-(difluoromethoxy)-3-pyridyl]-2-[(2R,5S)-2-(4-fluorophenyl)-5-methyl-1-piperidyl]-2-oxo-acetamide], the pIC50 is 6.30 to 7.30 in experiment [1]; 6.30 to 7.30 in experiment [2]; over 7.30 in experiment [3]; under 6.00 in experiment [4]; 6.00 to 7.00 in experiment [5] (setting [9]); 5.00 to 6.00 in experiment [6] (MTAP-deleted cell line). Further, the MTAP intact/deleted ratio result in experiment [5] (setting [8]) is “A (an IC50 ratio greater than or equal to 10 fold)”.

In the case of `C[C@H]1CC[C@H](c2ccc(F)cc2)N(C(=O)C(=O)Nc2cnc(OC(F)(F)F)c(C(N)=O)c2)C1` [Compound 1039, 5-[[2-[(2R,5S)-2-(4-fluorophenyl)-5-methyl-1-piperidyl]-2-oxo-acetyl]amino]-2-(trifluoromethoxy)pyridine-3-carboxamide], the pIC50 in experiment [1] was 6.30 to 7.30; in experiment [2], 6.30 to 7.30; in experiment [3] it was 6.30 to 7.30; in experiment [4], 6.00 to 7.00; in experiment [5] (setting [9]), 6.00 to 7.00; in experiment [6] (MTAP-deleted cell line), 5.00 to 6.00. Besides, the MTAP intact/deleted ratio entry in experiment [5] (setting [8]) is given as “C (an IC50 ratio of less than 3 fold)”.

For the molecule `CCc1cc(NC(=O)C(=O)N2C[C@@H](C)CC[C@@H]2c2cccc([C@@H]3CCCN(C)C3)c2)cnc1N` [Compound 1090, N-(6-amino-5-ethyl-3-pyridyl)-2-oxo-2-[(2R,5S)-5-methyl-2-[3-[(3S)-1-methyl-3-piperidyl]phenyl]-1-piperidyl]acetamide], the pIC50 was over 7.30 in experiment [1]; over 7.30 in experiment [2]; over 7.30 in experiment [3]; 6.00 to 7.00 in experiment [4]; over 7.00 in experiment [5] (setting [7]); over 6.00 in experiment [6] (MTAP-deleted cell line). The MTAP intact/deleted ratio result in experiment [5] (IC50 ratio HAP1 MTAP-intact vs HAP1 MTAP-deleted) is recorded as “A (an IC50 ratio greater than or equal to 10 fold)”.
